Reference: patent US20090239757A1, “Control Sequences Responding to AMP and Uses Thereof” (priority 2004, published 2009)
Residues, ends and D or L forms follow the SMILES beside them.

Tested on: E. coli
Experiment: growth and killing of E. coli on induced expression of novispirin (Suicide Expression System)
Assay type: cell-based, Escherichia coli
Source text: In the examples below the method of the invention has been illustrated using novispirin as the antimicrobial peptide and E. coli as the host cell. To assess the sustained physiological response of E. coli to novispirin, an arabinose induction system was used to make E. coli produce novispirin at a sub-lethal rate. […] These categories comprise particularly genes related to membrane dysfunction, heat shock, phage shock and antimicrobial peptide defense.
A plasmid was constructed to investigate the transcriptional response of E. coli upon expressing Novispirin G10 in a Suicide Expression System (SES) setup. The SES takes advantage of conditionally expressing antimicrobial peptides in a sensitive host. The degree of inhibition in the host reflects the potency of the antimicrobial peptide (AMP) (WO200073433). In the current setup, the AMP is exported to the periplasmic space where it interacts with the inner and/or outer membrane of E. coli.
In order to obtain a transcriptional profile of E. coli expressing Novispirin G10, 2×10 mL sterile LB media (10 g/L Bactotryptone, 5 g/L Yeast extract, and 10 g/L NaCl) containing 100 mg/L ampicillin was inoculated with E. coli TOP10 harbouring pDRS5-novispirin and pBAD gIII A, respectively. These cultures were grown overnight at 37° C. at 180 rpm. […]

Structure (SMILES): CC[C@H](C)[C@H](NC(=O)CNC(=O)[C@H](CCCCN)NC(=O)[C@H](CCCNC(=N)N)NC(=O)[C@@H](NC(=O)[C@@H](NC(=O)[C@H](CCCNC(=N)N)NC(=O)[C@H](CCCNC(=N)N)NC(=O)[C@H](CC(C)C)NC(=O)[C@H](CC(N)=O)NC(=O)[C@@H](N)CCCCN)[C@@H](C)CC)[C@@H](C)CC)C(=O)N[C@@H](Cc1c[nH]cn1)C(=O)N[C@H](C(=O)N[C@H](C(=O)N[C@@H](CCCCN)C(=O)N[C@@H](CCCCN)C(=O)N[C@@H](Cc1ccc(O)cc1)C(=O)NCC(=O)O)[C@@H](C)CC)[C@@H](C)CC [Novispirin G10] (H-KNLRRIIRKGIHIIKKYG-OH; N-terminus assumed)
- growth rate on induction of novispirin expression (arabinose induction, sub-lethal rate, growth was not completely inhibited): reduced the growth rate significantly
- inhibition and killing of the host when the AMP is expressed (expressed and exported to the periplasmic space, as opposed to adding purified peptide to a cell culture): prolong the inhibition and delay killing
